In patent US8207154B2, “Catatonic bacteriochlorophyll derivatives” (Yeda Research and Development Co., Ltd., priority 2005, dated 2012) one finds IC50 data, which are given here for eight compounds.

This assay has as its system H5V cells. The assay is described as follows: Phototoxicity assay (PDT efficacy at two incubation times), neutral red survival. It counts as cell-based, mouse. As to conditions: then 10 min illumination, 12 J/cm^2. The procedure: H5V cells (40×10^3/well) were cultured in 96-well plates for 24 h to ˜80% confluence. To determine phototoxicity, the culture medium was replaced with 100 μl/well medium, in the absence or presence of 10^−8 to 10^−6 M sensitizer, and incubated in the dark for 15 min or 3 h in the culture incubator. The plates (PDT group) were then placed in the light field at room temperature and illuminated from the bottom for 10 min (800>λ>650 nm, 12 J/cm^2). After illumination, the medium was changed to fresh culture medium. The cultures were then placed in the culture incubator and cell survival was determined 24 h later, using the neutral red survival assay described below.
Following 24 h post PDT the culture medium in the wells was replaced with 100 μl fresh medium containing 40 μg/ml neutral red. The plate was incubated for 1.5 h in a dark culture incubator. The medium was aspirated and the cells washed with 100 μl of solution containing 1% CaCl2 and 0.5% formaldehyde, which removes the unincorporated dye and fixes the cells to the substratum. The dye was then extracted from the cells into the supernatant upon addition of 100 μl 1% glacial acetic acid in 50% ethanol. After 1-2 min at room temperature, the optical density of the wells was determined in a microplate spectrophotometer using a 570 nm filter. After subtraction of assay blanks, net optical density was computed as the average value of triplicate determinations. Cell survival was calculated as the percent of the dye accumulated in the untreated control. To determine cell survival data was plotted against sensitizer concentration. These curves were then used to calculated LD50 values.
Following synthesis, the compounds described in the Examples 23 to 75 above were purified, divided into equal aliquots and lyophilized for storage (desiccated at −20° C.). The exact material content was determined by HPLC-diode array detection, and the PDT efficacy was evaluated at two incubation times as described in the experimental section.

Where [1] appears, read: 15 min incubation in the dark, read-out: IC50 15 min.
The mark [2] stands for this setting: 3 h incubation in the dark, read-out: IC50 3 hours.

Like-named read-outs stand apart in the source and are kept apart here.

As to `CC[C@H]1C2=NC(=Cc3c(C(C)=O)c(C)c4[n]3[Pd][n]3c(c(C)c(C(=O)NCCN(CCN)CCN)c3=C(CC(=O)OC)C3=NC(=C4)[C@@H](C)[C@@H]3CCC(=O)NCCN(CCN)CCN)=C2)[C@@H]1C` [Compound 43, Palladium 3^1-oxo-15-methoxycarbonylmethyl-Rhodobacteriochlorin-13^1,17^3-di([2-bis(2-aminoethyl)amino]ethyl)amide], the IC50 was determined as 0.6 µM under setting [1] and 0.18 µM under setting [2].
For `CCC1C2=Cc3c(C)c(C(=O)NCCNc4ccccn4)c4[n]3[Pd][n]3c(c(C)c(C(C)=O)c3=CC(=N2)C1C)=CC1=NC(=C4CC(=O)OC)C(CCC(=O)NCCNc2ccccn2)C1C` (stereo not shown) [Compound 44, Palladium 3^1-oxo-15-methoxycarbonylmethyl-Rhodobacteriochlorin-13^1,17^3-di(2-N-(2′-pyridyl)aminoethyl)amide], the half-inhibitory concentration (IC50) under setting [1] was 1.41 µM and the half-maximal inhibitory concentration (IC50) under setting [2] came to 0.17 µM.
With `CC[C@H]1C2=NC(=Cc3c(C(C)=O)c(C)c4[n]3[Pd][n]3c(c(C)c(C(=O)NCCN(CC)CC)c3=C(CC(=O)OC)C3=NC(=C4)[C@@H](C)[C@@H]3CCC(=O)NCCN(CC)CC)=C2)[C@@H]1C` [Compound 45, Palladium 3^1-oxo-15-methoxycarbonylmethyl-Rhodobacteriochlorin-13^1, 17^3-di(2-N^2-diethylaminoethyl)amide], the concentration for half-maximal inhibition (IC50) stood at 0.2 µM under setting [1] and 0.18 µM under setting [2].
Take `CC[C@H]1C2=NC(=Cc3c(C(C)=O)c(C)c4[n]3[Pd][n]3c(c(C)c(C(=O)NCC(O)CO)c3=C(CC(=O)OC)C3=NC(=C4)[C@@H](C)[C@@H]3CCC(=O)NCCN)=C2)[C@@H]1C` (stereo partly shown) [Compound 47, Palladium 3^1-oxo-15-methoxycarbonylmethyl-Rhodobacteriochlorin-13^1-(2,3-dihydroxypropyl)amide-17^3-(2-aminoethyl) amide]: the IC50 reads like this: under setting [1], 0.45 µM; under setting [2], 0.25 µM.
On to `CCC1C2=Cc3c(C)c(C(=O)NCCN)c4[n]3[Pd][n]3c(c(C)c(C(C)=O)c3=CC(=N2)C1C)=CC1=NC(=C4CC(=O)OC)C(CCC(=O)NCC(O)CO)C1C` (stereo not shown) [Compound 48, Palladium 3^1-oxo-15-methoxycarbonylmethyl-Rhodobacteriochlorin-13^1-(2-aminoethyl)amide-17^3-(2,3-dihydroxypropyl) amide], for which the IC50 was 0.6 µM under setting [1] and 0.2 µM under setting [2].
Regarding `CC[C@H]1C2=NC(=Cc3c(C(C)=O)c(C)c4[n]3[Pd][n]3c(c(C)c(C(=O)NCC(O)CO)c3=C(CC(=O)OC)C3=NC(=C4)[C@@H](C)[C@@H]3CCC(=O)NCCN(C)C)=C2)[C@@H]1C` (stereo partly shown) [Compound 49, Palladium 3^1-oxo-15-methoxycarbonylmethyl-Rhodobacteriochlorin-13^1-(2,3-dihydroxypropyl)amide-17^3-(2-N^2-dimethylaminoethyl)amide], the IC50 is, setting by setting: under setting [1], 1.15 µM; under setting [2], 0.57 µM.
On to `CC[C@H]1C2=NC(=Cc3c(C(C)=O)c(C)c4[n]3[Pd][n]3c(c(C)c(C(=O)NCCN(C)C)c3=C(CC(=O)OC)C3=NC(=C4)[C@@H](C)[C@@H]3CCC(=O)NCC(O)CO)=C2)[C@@H]1C` (stereo partly shown) [Compound 50, Palladium 3^1-oxo-15-methoxycarbonylmethyl-Rhodobacteriochlorin-13^1-(2-N^2-dimethylaminoethyl)amide-17^3-(2,3-dihydroxypropyl)amide], for which the IC50 by setting is: under setting [1], 0.47 µM; under setting [2], 0.17 µM.
Consider `CC[C@H]1C2=NC(=Cc3c(C(C)=O)c(C)c4[n]3[Pd][n]3c(c(C)c(C(=O)NCC(O)CO)c3=C(CC(=O)OC)C3=NC(=C4)[C@@H](C)[C@@H]3CCC(=O)NCCNCCN)=C2)[C@@H]1C` (stereo partly shown) [Compound 51, Palladium 3^1-oxo-15-methoxycarbonylmethyl-Rhodobacteriochlorin-13^1-(2,3-dihydroxypropyl)amide-17^3-(2-[(2-aminoethyl)amino]ethyl)amide], for which the half-inhibitory concentration (IC50) worked out at 0.78 µM under setting [1] and 0.4 µM under setting [2].
